Assays:
Type in all cases: in vivo
[1] = tested on: Echinochloa oryzacola Vasing.; experiment: Test Example 2: herbicidal activity, application during weed generation in submerged conditions; conditions: Eighteenth Table; application herbicide amount 320 g/ha
Procedure, shortened: (§1)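 Scored three weeks post-application on a 0–5 scale (5: ≥90% herbicidal ratio, almost withered; 0: ≤5%). Plants raised from mixed-sown seed in submerged alluvial soil (4 cm water), 25–30 °C greenhouse; water-diluted emulsion applied onto water surface at one- to two-leaf stage, dose in g/ha.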

[2] = tested on: directly sowed Oryza sativa; experiment: Test Example 4: effect on crop by application to foliage (diluvial soil, plastic box); conditions: for d (directly sowed Oryza sativa) effect on crop grade: foliage application
Procedure, shortened: (§2)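 Seeds sown in sterilized diluvial soil, covered ~1.5 cm, grown 14 days in greenhouse at 25° C. to 30° C. Emulsion formulation diluted in water to set rate (g/ha) and sprayed onto stems and leaves. Effect scored visually 3 weeks later on 0–5 scale (5 = ≥90% herbicidal ratio, 0 = ≤5%).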

Triticum aestivum = experiment: as above; conditions: for e (Triticum aestivum) effect on crop grade: foliage application
Procedure, shortened: as §2

Zea mays = experiment: as above; conditions: for b (Zea mays) effect on crop grade: foliage application
Procedure, shortened: as §2

[3] = tested on: Beta vulgaris ssp. vulgaris; experiment: as above; conditions: for f (Beta vulgaris ssp. vulgaris) effect on crop grade: foliage application
Procedure, shortened: as §2

Brassica campestris L. = experiment: as above; conditions: for g (Brassica campestris L.) effect on crop grade: foliage application
Procedure, shortened: as §2

Glycine max = experiment: as above; conditions: for c (Glycine max) effect on crop grade: foliage application
Procedure, shortened: as §2

Amaranthus retroflexus = experiment: Test Example 4: herbicidal effect by application to foliage (diluvial soil, plastic box); conditions: for N (Amaranthus retroflexus) herbicidal effect grade: foliage application
Procedure, shortened: as §2

Stellaria media = experiment: as above
Procedure, shortened: as §2

Digitaria ciliaris = experiment: as above; conditions: for F (Digitaria ciliaris) herbicidal effect grade: foliage application
Procedure, shortened: as §2

Lolium multiflorum Lam. = experiment: as above; conditions: for K (Lolium multiflorum Lam.) herbicidal effect grade: foliage application
Procedure, shortened: as §2

Alopecurus myosuroides = experiment: as above; conditions: for J (Alopecurus myosuroides) herbicidal effect grade: foliage application
Procedure, shortened: as §2

Apera spica-venti. = experiment: as above; conditions: for L (Apera spica-venti.) herbicidal effect grade: foliage application
Procedure, shortened: as §2

Abutilon theophrasti = experiment: as above; conditions: for M (Abutilon theophrasti) herbicidal effect grade: foliage application
Procedure, shortened: as §2

[4] = tested on: Echinochloa crus-galli var. crus-galli; experiment: as above; conditions: for H (Echinochloa crus-galli var. crus-galli) herbicidal effect grade: foliage application
Procedure, shortened: as §2

Veronica persica = experiment: as above; conditions: for R (Veronica persica) herbicidal effect grade: foliage application
Procedure, shortened: as §2

Setaria viridis = experiment: as above; conditions: for G (Setaria viridis) herbicidal effect grade: foliage application
Procedure, shortened: as §2

Galium spurium = experiment: as above; conditions: for Q (Galium spurium) herbicidal effect grade: foliage application
Procedure, shortened: as §2

Chenopodium album = experiment: as above; conditions: for O (Chenopodium album) herbicidal effect grade: foliage application
Procedure, shortened: as §2

Avena fatua = experiment: as above; conditions: for I (Avena fatua) herbicidal effect grade: foliage application
Procedure, shortened: as §2

Scirpus juncoides = experiment: Test Example 2: herbicidal activity, application during weed generation in submerged conditions; conditions: Eighteenth Table; application herbicide amount 320 g/ha
Procedure, shortened: as §1

Monochoria vaginalis = experiment: as above; conditions: Eighteenth Table; application herbicide amount 320 g/ha
Procedure, shortened: as §1

[5] = application to foliage, application herbicide amount 320 g/ha
[6] = application to foliage, 320 g/ha

## COc1ccc(N(C)c2nnc3c(C(=O)Nc4nnco4)ccc(C(F)(F)F)n23)cc1 [1-171]
[1]
  A (Echinochloa oryzicola Vasing.) herbicidal ratio grade: 4 (Herbicidal ratio of 70% or more and less than 90%)
[2]; [5]
  b: effect on crop, directly sowed Oryza sativa: 0 (Herbicidal ratio of 5% or less (almost no effect))
Triticum aestivum; [5]
  e: effect on crop, Triticum aestivum: 0 (Herbicidal ratio of 5% or less (almost no effect))
Zea mays; [5]
  c: effect on crop, Zea mays: 0 (Herbicidal ratio of 5% or less (almost no effect))
[3]; [5]
  f: effect on crop, Beta vulgaris ssp. vulgaris: 5 (Herbicidal ratio of 90% or more (almost completely withered))
Brassica campestris L.; [5]
  g: effect on crop, Brassica campestris L.: 3 (Herbicidal ratio of 40% or more and less than 70%)
Glycine max; [5]
  d: effect on crop, Glycine max: 3 (Herbicidal ratio of 40% or more and less than 70%)
Amaranthus retroflexus; [5]
  N: herbicidal effect on Amaranthus retroflexus: 4 (Herbicidal ratio of 70% or more and less than 90%)
Stellaria media; [5]
  P: herbicidal effect on Stellaria media: 5 (Herbicidal ratio of 90% or more (almost completely withered))
Digitaria ciliaris; [5]
  F: herbicidal effect on Digitaria ciliaris: 3 (Herbicidal ratio of 40% or more and less than 70%)
Lolium multiflorum Lam.; [5]
  K: herbicidal effect on Lolium multiflorum Lam.: 0 (Herbicidal ratio of 5% or less (almost no effect))
Alopecurus myosuroides; [5]
  J: herbicidal effect on Alopecurus myosuroides: 0 (Herbicidal ratio of 5% or less (almost no effect))
Apera spica-venti.; [5]
  L: herbicidal effect on Apera spica-venti.: 1 (Herbicidal ratio of 5% or more and less than 20%)
Abutilon theophrasti; [5]
  M: herbicidal effect on Abutilon theophrasti: 4 (Herbicidal ratio of 70% or more and less than 90%)
[4]; [5]
  H: herbicidal effect on Echinochloa crus-galli var. crus-galli: 5 (Herbicidal ratio of 90% or more (almost completely withered))
Veronica persica; [5]
  R: herbicidal effect on Veronica persica: 3 (Herbicidal ratio of 40% or more and less than 70%)
Setaria viridis; [5]
  G: herbicidal effect on Setaria viridis: 3 (Herbicidal ratio of 40% or more and less than 70%)
Galium spurium; [5]
  Q: herbicidal effect on Galium spurium: 2 (Herbicidal ratio of 20% or more and less than 40%)
Chenopodium album; [5]
  O: herbicidal effect on Chenopodium album: 5 (Herbicidal ratio of 90% or more (almost completely withered))
Avena fatua; [5]
  I: herbicidal effect on Avena fatua: 0 (Herbicidal ratio of 5% or less (almost no effect))

## COC(=O)Cn1nnnc1NC(=O)c1ccc(C(F)(F)F)n2c(C(C)C)nnc12 [2-046]
[2]; 320 g/ha
  d (directly sowed Oryza sativa) effect on crop grade: 0 (Herbicidal ratio of 5% or less (almost no effect))
Triticum aestivum; 320 g/ha
  e (Triticum aestivum) effect on crop grade: 0 (Herbicidal ratio of 5% or less (almost no effect))
Zea mays; 320 g/ha
  b (Zea mays) effect on crop grade: 0 (Herbicidal ratio of 5% or less (almost no effect))
[3]; 320 g/ha
  f (Beta vulgaris ssp. vulgaris) effect on crop grade: 2 (Herbicidal ratio of 20% or more and less than 40%)
Brassica campestris L.; 320 g/ha
  g (Brassica campestris L.) effect on crop grade: 0 (Herbicidal ratio of 5% or less (almost no effect))
Glycine max; 320 g/ha
  c (Glycine max) effect on crop grade: 0 (Herbicidal ratio of 5% or less (almost no effect))
Amaranthus retroflexus; 320 g/ha
  N (Amaranthus retroflexus) herbicidal effect grade: 4 (Herbicidal ratio of 70% or more and less than 90%)
Stellaria media; foliage application, 320 g/ha
  P (Stellaria media) herbicidal effect grade: 2 (Herbicidal ratio of 20% or more and less than 40%)
Digitaria ciliaris; 320 g/ha
  F (Digitaria ciliaris) herbicidal effect grade: 0 (Herbicidal ratio of 5% or less (almost no effect))
Lolium multiflorum Lam.; 320 g/ha
  K (Lolium multiflorum Lam.) herbicidal effect grade: 0 (Herbicidal ratio of 5% or less (almost no effect))
Alopecurus myosuroides; 320 g/ha
  J (Alopecurus myosuroides) herbicidal effect grade: 0 (Herbicidal ratio of 5% or less (almost no effect))
Apera spica-venti.; 320 g/ha
  L (Apera spica-venti.) herbicidal effect grade: 0 (Herbicidal ratio of 5% or less (almost no effect))
Abutilon theophrasti; 320 g/ha
  M (Abutilon theophrasti) herbicidal effect grade: 4 (Herbicidal ratio of 70% or more and less than 90%)
[4]; 320 g/ha
  H (Echinochloa crus-galli var. crus-galli) herbicidal effect grade: 3 (Herbicidal ratio of 40% or more and less than 70%)
Veronica persica; 320 g/ha
  R (Veronica persica) herbicidal effect grade: 1 (Herbicidal ratio of 5% or more and less than 20%)
Setaria viridis; 320 g/ha
  G (Setaria viridis) herbicidal effect grade: 1 (Herbicidal ratio of 5% or more and less than 20%)
Galium spurium; 320 g/ha
  Q (Galium spurium) herbicidal effect grade: 1 (Herbicidal ratio of 5% or more and less than 20%)
Chenopodium album; 320 g/ha
  O (Chenopodium album) herbicidal effect grade: 4 (Herbicidal ratio of 70% or more and less than 90%)
Avena fatua; 320 g/ha
  I (Avena fatua) herbicidal effect grade: 0 (Herbicidal ratio of 5% or less (almost no effect))

## CC(C)c1nnc2c(C(=O)Nc3nnnn3C)ccc(C(F)(F)C(F)(F)F)n12 [2-049]
Scirpus juncoides
  B (Scirpus juncoides) herbicidal ratio grade: 5 (Herbicidal ratio of 90% or more (almost completely withered))
Monochoria vaginalis
  C (Monochoria vaginalis) herbicidal ratio grade: 4 (Herbicidal ratio of 70% or more and less than 90%)
[1]
  A (Echinochloa oryzicola Vasing.) herbicidal ratio grade: 5 (Herbicidal ratio of 90% or more (almost completely withered))
[2]; 320 g/ha
  d (directly sowed Oryza sativa) effect on crop grade: 4 (Herbicidal ratio of 70% or more and less than 90%)
Triticum aestivum; 320 g/ha
  e (Triticum aestivum) effect on crop grade: 0 (Herbicidal ratio of 5% or less (almost no effect))
Zea mays; 320 g/ha
  b (Zea mays) effect on crop grade: 2 (Herbicidal ratio of 20% or more and less than 40%)
[3]; 320 g/ha
  f (Beta vulgaris ssp. vulgaris) effect on crop grade: 4 (Herbicidal ratio of 70% or more and less than 90%)
Brassica campestris L.; 320 g/ha
  g (Brassica campestris L.) effect on crop grade: 3 (Herbicidal ratio of 40% or more and less than 70%)
Glycine max; 320 g/ha
  c (Glycine max) effect on crop grade: 1 (Herbicidal ratio of 5% or more and less than 20%)
Amaranthus retroflexus; 320 g/ha
  N (Amaranthus retroflexus) herbicidal effect grade: 3 (Herbicidal ratio of 40% or more and less than 70%)
Digitaria ciliaris; 320 g/ha
  F (Digitaria ciliaris) herbicidal effect grade: 5 (Herbicidal ratio of 90% or more (almost completely withered))
Lolium multiflorum Lam.; 320 g/ha
  K (Lolium multiflorum Lam.) herbicidal effect grade: 3 (Herbicidal ratio of 40% or more and less than 70%)
Alopecurus myosuroides; 320 g/ha
  J (Alopecurus myosuroides) herbicidal effect grade: 1 (Herbicidal ratio of 5% or more and less than 20%)
Apera spica-venti.; 320 g/ha
  L (Apera spica-venti.) herbicidal effect grade: 4 (Herbicidal ratio of 70% or more and less than 90%)
Abutilon theophrasti; 320 g/ha
  M (Abutilon theophrasti) herbicidal effect grade: 4 (Herbicidal ratio of 70% or more and less than 90%)
[4]; 320 g/ha
  H (Echinochloa crus-galli var. crus-galli) herbicidal effect grade: 5 (Herbicidal ratio of 90% or more (almost completely withered))
Veronica persica; 320 g/ha
  R (Veronica persica) herbicidal effect grade: 4 (Herbicidal ratio of 70% or more and less than 90%)
Setaria viridis; 320 g/ha
  G (Setaria viridis) herbicidal effect grade: 5 (Herbicidal ratio of 90% or more (almost completely withered))
Galium spurium; 320 g/ha
  Q (Galium spurium) herbicidal effect grade: 3 (Herbicidal ratio of 40% or more and less than 70%)
Chenopodium album; 320 g/ha
  O (Chenopodium album) herbicidal effect grade: 5 (Herbicidal ratio of 90% or more (almost completely withered))
Avena fatua; 320 g/ha
  I (Avena fatua) herbicidal effect grade: 3 (Herbicidal ratio of 40% or more and less than 70%)

## Cc1nnc(NC(=O)c2ccc(C(F)(F)F)n3nc(C(C)C)nc23)o1 [7-001]
[2]; [6]
  effect on crop, d (directly sowed Oryza sativa): 0 (Herbicidal ratio of 5% or less (almost no effect))
Triticum aestivum; [6]
  effect on crop, e (Triticum aestivum): 0 (Herbicidal ratio of 5% or less (almost no effect))
Zea mays; [6]
  effect on crop, b (Zea mays): 0 (Herbicidal ratio of 5% or less (almost no effect))
[3]; [6]
  effect on crop, f (Beta vulgaris ssp. vulgaris): 0 (Herbicidal ratio of 5% or less (almost no effect))
Brassica campestris L.; [6]
  effect on crop, g (Brassica campestris L.): 0 (Herbicidal ratio of 5% or less (almost no effect))
Glycine max; [6]
  effect on crop, c (Glycine max): 0 (Herbicidal ratio of 5% or less (almost no effect))
Amaranthus retroflexus; [6]
  herbicidal effect, N (Amaranthus retroflexus): 0 (Herbicidal ratio of 5% or less (almost no effect))
Stellaria media; [6]
  herbicidal effect, P (Stellaria media): 1 (Herbicidal ratio of 5% or more and less than 20%)
Digitaria ciliaris; [6]
  herbicidal effect, F (Digitaria ciliaris): 0 (Herbicidal ratio of 5% or less (almost no effect))
Lolium multiflorum Lam.; [6]
  herbicidal effect, K (Lolium multiflorum Lam.): 0 (Herbicidal ratio of 5% or less (almost no effect))
Alopecurus myosuroides; [6]
  herbicidal effect, J (Alopecurus myosuroides): 0 (Herbicidal ratio of 5% or less (almost no effect))
Apera spica-venti.; [6]
  herbicidal effect, L (Apera spica-venti.): 0 (Herbicidal ratio of 5% or less (almost no effect))
Abutilon theophrasti; [6]
  herbicidal effect, M (Abutilon theophrasti): 1 (Herbicidal ratio of 5% or more and less than 20%)
[4]; [6]
  herbicidal effect, H (Echinochloa crus-galli var. crus-galli): 1 (Herbicidal ratio of 5% or more and less than 20%)
Veronica persica; [6]
  herbicidal effect, R (Veronica persica): 0 (Herbicidal ratio of 5% or less (almost no effect))
Setaria viridis; [6]
  herbicidal effect, G (Setaria viridis): 0 (Herbicidal ratio of 5% or less (almost no effect))
Galium spurium; [6]
  herbicidal effect, Q (Galium spurium): 0 (Herbicidal ratio of 5% or less (almost no effect))
Chenopodium album; [6]
  herbicidal effect, O (Chenopodium album): 2 (Herbicidal ratio of 20% or more and less than 40%)
Avena fatua; [6]
  herbicidal effect, I (Avena fatua): 0 (Herbicidal ratio of 5% or less (almost no effect))

From US9708314B2, “Heterocyclic amide compound” (NISSAN CHEMICAL INDUSTRIES, LTD., priority 2013, dated 2017)
